The values below are quoted from earlier work in patent US5955321A, “Production and use of compositions comprising high concentrations of vitamin B12 activity” (Gist-Brocades, priority 1996, dated 1999).

For the data set the following is noted: for stability to light: in isolated form.

Turning to 5'desoxyadenosylcobalamin, the “stability in aqueous solution” value is reported as “easily transformed to hydroxocobalamin” and the stability to light result was “unstable to light”.
With `C/C1=C2/[N-][C@H]([C@H](CC(N)=O)[C@@]2(C)CCC(=O)NC[C@@H](C)OP(=O)([O-])O[C@H]2[C@@H](O)[C@@H](n3cnc4cc(C)c(C)cc43)O[C@@H]2CO)[C@]2(C)N=C(/C(C)=C3N=C(/C=C4N=C1[C@@H](CCC(N)=O)C\4(C)C)[C@@H](CCC(N)=O)[C@]\3(C)CC(N)=O)[C@@H](CCC(N)=O)[C@]2(C)CC(N)=O.[CH3-].[Co+3]` [methylcobalamin], the “stability in aqueous solution” value is given as “easily transformed to hydroxocobalamin” and the stability to light result is “unstable to light”.
